In patent US4169197A, “6-Deoxyneamines aminoglycoside compounds” (The Upjohn Company, priority 1978, dated 1979):
In brackets after ≈: the same amount, converted by molar mass. Like-named read-outs stand apart in the source and are kept apart here.

What was measured:
Assay type in all cases: cell-based
[1] = test system: S. faecalis UC 694; experiment: standard microplate test in BHI Agar; conditions: Enterococcus faecalis
Procedure: (§1) The compounds VII, XI, XVβ, XVα and XVI were tested in a standard microplate test in BHI (Brain Heart Infusion) Agar at a concentration of 1 mg./ml. and dilutions thereof at 37° incubation temperature. The end points are read out 20 hours. BHI Agar is supplied by Difco Laboratories, Detroit, Mich.

[2] = test system: Ps. aeruginosa UC 95; experiment: standard microplate test in BHI Agar; conditions: Pseudomonas aeruginosa
Procedure: as §1

[3] = test system: S. aureus UC 76; experiment: standard microplate test in BHI Agar; conditions: Staphylococcus aureus
Procedure: as §1

[4] = test system: S. flexneri UC 143; experiment: standard microplate test in BHI Agar; conditions: Shigella flexneri, UC143, 37°, 20 hours
Procedure: as §1

[5] = test system: K. pneumoniae UC 58; experiment: standard microplate test in BHI Agar; conditions: Klebsiella pneumoniae
Procedure: as §1

[6] = test system: P. rettgeri UC 339; experiment: standard microplate test in BHI Agar; conditions: Providencia rettgeri
Procedure: as §1

[7] = test system: S. typhi UC 215; experiment: standard microplate test in BHI Agar; conditions: Salmonella enterica, 20 h
Procedure: as §1

[8] = test system: S. pyogenes UC 152; experiment: standard microplate test in BHI Agar; conditions: Streptococcus pyogenes
Procedure: as §1

[9] = test system: S. marcescens UC 131; experiment: standard microplate test in BHI Agar; conditions: Serratia marcescens, UC131, 20 h
Procedure: as §1

[10] = test system: S. schottmuelleri UC 126; experiment: standard microplate test in BHI Agar; conditions: 37°, 20 hours
Procedure: as §1

[11] = test system: P. vulgaris UC 93; experiment: standard microplate test in BHI Agar; conditions: Proteus vulgaris, UC93, 20 h
Procedure: as §1

[12] = test system: P. mirabilis UC 6671; experiment: standard microplate test in BHI Agar; conditions: Proteus mirabilis, UC6671, 20 h
Procedure: as §1

[13] = test system: S. pneumoniae I UC 41; experiment: standard microplate test in BHI Agar; conditions: Streptococcus pneumoniae, UC41, 20 h
Procedure: as §1

[14] = test system: E. coli UC 45; experiment: standard microplate test in BHI Agar; conditions: Escherichia coli, UC45, 37°, 20 hours, Table III, read-out: Minimum Inhibitory Concentration
Procedure: as §1

[15] = test system: P. morganii UC 3186; experiment: standard microplate test in BHI Agar; conditions: Morganella morganii
Procedure: as §1

[16] = test system: B. subtilis UC 564; experiment: standard disc plate assay, zones of inhibition; conditions: Bacillus subtilis, UC564, 12.5 mm paper discs, read-out: Zones of Inhibition; for zone of inhibition at 100 µg/mL: 0.1 mg/ml; for zone of inhibition at 1000 µg/mL: 1 mg/ml
From the text: (§2) The compounds of formulas (V, VII, IX, XI, XIV, XVI, and XIX) are active as antibacterials and can be used in various environments to erradicate or control susceptible microorganisms. Tables I and II set forth the in vitro antibacterial test results for representative compounds of the present invention. The results were obtained with a standard disc plate assay using 12.5 mm paper discs.

[17] = test system: S. aureus UC 80; experiment: standard disc plate assay, zones of inhibition; conditions: Staphylococcus aureus, UC80, 12.5 mm paper discs, read-out: Zones of Inhibition; for zone of inhibition at 100 µg/mL: 0.1 mg/ml; for zone of inhibition at 1000 µg/mL: 1 mg/ml
From the text: as §2

[18] = test system: Ps. aeruginosa UC 95; experiment: standard disc plate assay, zones of inhibition; conditions: Pseudomonas aeruginosa, UC95, 1 mg/ml, 12.5 mm paper discs, read-out: Zones of Inhibition
From the text: as §2

[19] = test system: S. lutea UC 130; experiment: standard disc plate assay, zones of inhibition; conditions: Micrococcus luteus, UC130, 1 mg/ml, 12.5 mm paper discs, read-out: Zones of Inhibition
From the text: as §2

[20] = test system: B. cereus UC 3145; experiment: standard disc plate assay, zones of inhibition; conditions: Bacillus cereus, UC3145, 12.5 mm paper discs, read-out: Zones of Inhibition; for zone of inhibition at 1000 µg/mL: 1 mg/ml
From the text: as §2

[21] = test system: S. schottmuelleri UC 126; experiment: standard disc plate assay, zones of inhibition; conditions: 12.5 mm paper discs; for zone of inhibition at 1000 µg/mL: 1 mg/ml
From the text: as §2

[22] = test system: S. gallinarum UC 265; experiment: standard disc plate assay, zones of inhibition; conditions: Salmonella enterica, 12.5 mm paper discs, read-out: Zones of Inhibition; for zone of inhibition at 100 µg/mL: 0.1 mg/ml; for zone of inhibition at 1000 µg/mL: 1 mg/ml
From the text: as §2

[23] = test system: P. vulgaris UC 93; experiment: standard disc plate assay, zones of inhibition; conditions: Proteus vulgaris, UC93, 12.5 mm paper discs, read-out: Zones of Inhibition; for zone of inhibition at 1000 µg/mL: 1 mg/ml
From the text: as §2

[24] = test system: E. coli UC 51; experiment: standard disc plate assay, zones of inhibition; conditions: Escherichia coli, UC51, 12.5 mm paper discs, read-out: Zones of Inhibition; for zone of inhibition at 100 µg/mL: 0.1 mg/ml; for zone of inhibition at 1000 µg/mL: 1 mg/ml
From the text: as §2

[25] = test system: K. pneumoniae UC 57; experiment: standard disc plate assay, zones of inhibition; conditions: Klebsiella pneumoniae, UC57, 12.5 mm paper discs, read-out: Zones of Inhibition; for zone of inhibition at 100 µg/mL: 0.1 mg/ml; for zone of inhibition at 1000 µg/mL: 1 mg/ml
From the text: as §2

[26] = test system: E. coli UC 311; experiment: standard microplate test in BHI Agar; conditions: Escherichia coli, UC311, 20 h, read-out: Minimal Inhibitory Concentration
Procedure: as §1

[27] = UC694, 20 h, read-out: Minimum Inhibitory Concentration
[28] = UC95, 20 h, read-out: Minimum Inhibitory Concentration
[29] = Table III, read-out: Minimum Inhibitory Concentration
[30] = UC58, 20 h, read-out: Minimum Inhibitory Concentration
[31] = UC339, 20 h, read-out: Minimum Inhibitory Concentration
[32] = read-out: Minimum Inhibitory Concentration
[33] = UC152, 20 h, read-out: Minimum Inhibitory Concentration
[34] = UC3186, 20 h, read-out: Minimum Inhibitory Concentration
[35] = Table IV, read-out: Minimal Inhibitory Concentration
[36] = read-out: Minimal Inhibitory Concentration

NC[C@H]1O[C@H](O[C@H]2[C@H](O)C[C@H](N)C[C@@H]2N)[C@H](N)[C@@H](O)[C@@H]1O [6-deoxyneamine (XI), 6-deoxyneamine]
MIC [1, 27]: > 500 µg/mL
MIC [2, 28]: > 500 µg/mL
MIC ([3]; UC76, BHI Agar, 37°, 20 hours, Table III, read-out: Minimum Inhibitory Concentration): 3.9 µg/mL (≈ 12.7 µM)
MIC [4, 29]: 62.5 µg/mL (≈ 204 µM)
MIC [5, 30]: 7.8 µg/mL (≈ 25.5 µM)
MIC [6, 31]: 250 µg/mL (≈ 816 µM)
MIC [7, 32]: 31.2 µg/mL (≈ 102 µM)
MIC [8, 33]: 15.6 µg/mL (≈ 50.9 µM)
MIC [9, 32]: 250 µg/mL (≈ 816 µM)
MIC [10, 29]: 31.2 µg/mL (≈ 102 µM)
MIC [11, 32]: 31.2 µg/mL (≈ 102 µM)
MIC [12, 32]: 62.5 µg/mL (≈ 204 µM)
MIC [13, 32]: 62.5 µg/mL (≈ 204 µM)
MIC [14]: 31.2 µg/mL (≈ 102 µM)
MIC [15, 34]: 62.5 µg/mL (≈ 204 µM)

NC[C@H]1O[C@H](O[C@@H]2[C@@H](N)C[C@@H](N)C[C@H]2O[C@@H]2O[C@H](CO)[C@@H](O)[C@H]2O)[C@H](N)[C@@H](O)[C@@H]1O [Compound XVβ, O-2,6-diamino-2,6-dideoxy-α-D-glucopyranosyl (1→4)-O-[β-D-ribofuranosyl(1→5)]-2,6-dideoxy-D-streptamine]
zone of inhibition at 100 µg/mL ([16]; Table I): 31 mm
zone of inhibition at 1000 µg/mL ([16]; Table I): 39 mm
zone of inhibition at 100 µg/mL ([17]; Table I): 19 mm
zone of inhibition at 1000 µg/mL ([17]; Table I): 27 mm
zone of inhibition at 1000 µg/mL ([18]; Table I): 15 mm
zone of inhibition at 1000 µg/mL ([19]; Table I): 19 mm
zone of inhibition at 100 µg/mL ([20]; 0.1 mg/ml, Table I): 17 mm
zone of inhibition at 1000 µg/mL ([20]; Table I): 26 mm
zone of inhibition at 100 µg/mL ([21]; 0.1 mg/ml, Table I): 16 mm
zone of inhibition at 1000 µg/mL ([21]; Table I): 24 mm
zone of inhibition at 100 µg/mL ([22]; Table I): 21 mm
zone of inhibition at 1000 µg/mL ([22]; Table I): 29 mm
zone of inhibition at 100 µg/mL ([23]; 0.1 mg/ml, Table I): 18 mm
zone of inhibition at 1000 µg/mL ([23]; Table I): 27 mm
zone of inhibition at 100 µg/mL ([24]; Table I): 20 mm
zone of inhibition at 1000 µg/mL ([24]; Table I): 27 mm
zone of inhibition at 100 µg/mL ([25]; Table I): 28 mm
zone of inhibition at 1000 µg/mL ([25]; Table I): 36 mm
MIC ([1]; UC694, BHI Agar, 37°, 20 hours, Table IV, read-out: Minimal Inhibitory Concentration): 500 µg/mL (≈ 1140 µM)
MIC ([2]; UC95, BHI Agar, 37°, 20 hours, Table IV, read-out: Minimal Inhibitory Concentration): > 500 µg/mL
MIC ([3]; UC76, 20 h, read-out: Minimal Inhibitory Concentration): 31.2 µg/mL (≈ 71.2 µM)
MIC [4, 35]: 31.2 µg/mL (≈ 71.2 µM)
MIC ([5]; UC58, BHI Agar, 37°, 20 hours, Table IV, read-out: Minimal Inhibitory Concentration): 2 µg/mL (≈ 4.56 µM)
MIC ([6]; UC339, BHI Agar, 37°, 20 hours, Table IV, read-out: Minimal Inhibitory Concentration): > 500 µg/mL
MIC [7, 36]: 15.6 µg/mL (≈ 35.6 µM)
MIC ([8]; UC152, BHI Agar, 37°, 20 hours, Table IV, read-out: Minimal Inhibitory Concentration): 3.9 µg/mL (≈ 8.89 µM)
MIC [9, 36]: 62.5 µg/mL (≈ 143 µM)
MIC [10, 35]: 7.8 µg/mL (≈ 17.8 µM)
MIC [11, 36]: 31.2 µg/mL (≈ 71.2 µM)
MIC [26]: 31.2 µg/mL (≈ 71.2 µM)
MIC [12, 36]: 125 µg/mL (≈ 285 µM)
MIC [13, 36]: 15.6 µg/mL (≈ 35.6 µM)
MIC ([15]; UC3186, BHI Agar, 37°, 20 hours, Table IV, read-out: Minimal Inhibitory Concentration): 7.8 µg/mL (≈ 17.8 µM)

C[C@@]1(O)C[C@H](N)C[C@H](N)[C@H]1O[C@H]1O[C@H](CN)[C@@H](O)[C@H](O)[C@H]1N [6-deoxy-5-methylneamine (VII), 6-deoxy-5-methyl-neamine]
zone of inhibition at 100 µg/mL ([16]; Table II): 26 mm
zone of inhibition at 1000 µg/mL ([16]; Table II): 37 mm
zone of inhibition at 100 µg/mL ([17]; Table II): 18 mm
zone of inhibition at 1000 µg/mL ([17]; Table II): 25 mm
zone of inhibition at 1000 µg/mL ([18]; Table II): 15 mm
zone of inhibition at 1000 µg/mL ([19]; Table II): 15 mm
zone of inhibition at 1000 µg/mL ([20]; Table II): 23 mm
zone of inhibition at 1000 µg/mL ([21]; Table II): 21 mm
zone of inhibition at 100 µg/mL ([22]; Table II): 18 mm
zone of inhibition at 1000 µg/mL ([22]; Table II): 28 mm
zone of inhibition at 1000 µg/mL ([23]; Table II): 24 mm
zone of inhibition at 100 µg/mL ([24]; Table II): 16 mm
zone of inhibition at 1000 µg/mL ([24]; Table II): 24 mm
zone of inhibition at 100 µg/mL ([25]; Table II): 22 mm
zone of inhibition at 1000 µg/mL ([25]; Table II): 29 mm
MIC [1, 27]: > 500 µg/mL
MIC [2, 28]: > 500 µg/mL
MIC ([3]; UC76, 20 h, read-out: Minimum Inhibitory Concentration): 15.6 µg/mL (≈ 48.7 µM)
MIC [4, 29]: 125 µg/mL (≈ 390 µM)
MIC [5, 30]: 15.6 µg/mL (≈ 48.7 µM)
MIC [6, 31]: > 500 µg/mL
MIC [7, 32]: 62.5 µg/mL (≈ 195 µM)
MIC [8, 33]: 7.8 µg/mL (≈ 24.3 µM)
MIC [9, 32]: 125 µg/mL (≈ 390 µM)
MIC [10, 29]: 62.5 µg/mL (≈ 195 µM)
MIC [11, 32]: 62.5 µg/mL (≈ 195 µM)
MIC [12, 32]: 250 µg/mL (≈ 780 µM)
MIC [13, 32]: 62.5 µg/mL (≈ 195 µM)
MIC [14]: 125 µg/mL (≈ 390 µM)
MIC [15, 34]: 125 µg/mL (≈ 390 µM)
